The test system of one test is human whole blood cells. The experiment in a line: Induction of immunostimulatory cytokines (MIP-1-α and TNF-α ELISA) in human whole blood. The format is cell-based. Conditions: human whole blood from two donors, 1:5 serial dilutions, 20 hour incubation. As to the method:
In this example, human whole blood cells were stimulated with Compound IX and ELISA assays were performed to detect the induction of immunostimulatory cytokines. Serial dilutions (1:5) of Compound IX and other adjuvants were performed with phosphate buffered saline in a 96 well plate for a total of 7 dilutions. 100 μl of freshly drawn human blood from two different donors were mixed and incubated with 100 μl of adjuvant dilutions. Following a 20 hour incubation, plates were centrifuged and supernatants (˜70 μl) were collected, avoiding red blood cells, and stored at −20° C. prior performing MIP-1-α and TNF-α ELISAs using standard biochemical procedures. […] Additionally, these primary donor results mimicked the results seen in human cell lines and extend these important findings in relation to the possible dose ranges and safety profiles for this compound.
Background: In an ELISA, binding on a coated surface is turned into a signal by an enzyme label.

The target of another test is T1, TLR2 and TLR6 (Homo sapiens, UniProt O60603+Q9Y2C9).
T1 construct: host or cells: HEK 293
T1 sequence (O60603 21-784): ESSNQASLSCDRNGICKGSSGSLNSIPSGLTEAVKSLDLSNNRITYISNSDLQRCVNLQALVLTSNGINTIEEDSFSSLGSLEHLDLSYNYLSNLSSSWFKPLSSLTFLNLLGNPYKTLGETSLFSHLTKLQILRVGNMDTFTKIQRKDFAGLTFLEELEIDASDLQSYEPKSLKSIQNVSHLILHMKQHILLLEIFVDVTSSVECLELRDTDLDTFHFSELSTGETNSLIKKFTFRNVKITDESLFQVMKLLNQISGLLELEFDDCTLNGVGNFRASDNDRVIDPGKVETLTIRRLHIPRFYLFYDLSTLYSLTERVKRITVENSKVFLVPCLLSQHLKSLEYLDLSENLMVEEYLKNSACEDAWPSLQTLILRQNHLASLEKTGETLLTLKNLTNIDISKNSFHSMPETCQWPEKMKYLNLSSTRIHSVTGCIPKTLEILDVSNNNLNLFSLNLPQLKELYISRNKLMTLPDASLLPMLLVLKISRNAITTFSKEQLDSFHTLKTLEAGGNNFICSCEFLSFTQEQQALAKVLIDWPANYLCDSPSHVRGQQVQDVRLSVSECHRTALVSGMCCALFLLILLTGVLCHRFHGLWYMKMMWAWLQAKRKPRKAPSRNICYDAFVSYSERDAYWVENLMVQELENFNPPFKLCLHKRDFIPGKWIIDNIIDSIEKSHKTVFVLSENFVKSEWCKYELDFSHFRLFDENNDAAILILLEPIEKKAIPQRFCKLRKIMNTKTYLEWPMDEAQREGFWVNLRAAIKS
T1 sequence (Q9Y2C9 32-796): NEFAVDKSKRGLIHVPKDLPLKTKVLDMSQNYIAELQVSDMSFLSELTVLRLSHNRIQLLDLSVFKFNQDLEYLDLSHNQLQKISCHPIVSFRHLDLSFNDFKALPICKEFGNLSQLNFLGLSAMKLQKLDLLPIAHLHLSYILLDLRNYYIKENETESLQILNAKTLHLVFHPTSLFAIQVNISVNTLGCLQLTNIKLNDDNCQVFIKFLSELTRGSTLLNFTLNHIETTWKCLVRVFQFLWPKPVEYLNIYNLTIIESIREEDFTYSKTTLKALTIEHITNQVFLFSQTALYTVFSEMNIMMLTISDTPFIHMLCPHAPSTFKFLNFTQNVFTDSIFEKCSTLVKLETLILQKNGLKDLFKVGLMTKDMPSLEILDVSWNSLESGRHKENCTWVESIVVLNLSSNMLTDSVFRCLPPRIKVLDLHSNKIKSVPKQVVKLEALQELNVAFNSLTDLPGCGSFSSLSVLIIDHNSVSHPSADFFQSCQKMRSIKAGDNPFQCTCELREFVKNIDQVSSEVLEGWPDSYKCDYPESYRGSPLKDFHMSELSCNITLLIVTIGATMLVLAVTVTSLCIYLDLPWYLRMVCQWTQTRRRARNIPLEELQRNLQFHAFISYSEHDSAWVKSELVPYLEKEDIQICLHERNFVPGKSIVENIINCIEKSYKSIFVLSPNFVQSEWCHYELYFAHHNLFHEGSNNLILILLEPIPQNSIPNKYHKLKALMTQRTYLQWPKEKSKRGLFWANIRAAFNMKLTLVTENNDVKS
The experiment in a line: NF-kB reporter (secreted alkaline phosphatase, QUANTIBlue) assay in HEK 293 cells expressing TLR2 and TLR6. The format is cell-based. Conditions: HEK 293 cells with TLR2, TLR6 and NF-kB reporter. As to the method: (§1) Compound IX was tested in vitro using HEK 293 cells (InvivoGen) with expression vectors encoding 1) TLR4, MD-2, and CD14, or 2) TLR2 and TLR6 to define compound activity and dependence on TLR4, and to exclude activation of TLR2. These HEK 293 cell lines were further stably transfected with the NF-kB reporter vector pNifty-2 such that alkaline phosphatase is secreted into the growth media upon activation of the TLR signaling pathway. Transfected cell lines were plated at 5×10^4 cells per well in a 96-well plates and stimulated for 16-24 hours cultured in medium containing serial dilutions of Compound IX and other adjuvants. Secreted alkaline phosphatase activity was measured in the culture media using QUANTIBlue® assay (InvivoGen). The data was measured as enhancement of NF-kB above the PBS negative control. […] Compound IX was designed based on structural considerations of the reported atomic structure of MD2 and TLR4. […] Thus, it is expected that Compound IX and other illustrative compounds of the invention can be safely administered over a broad range of concentrations, which is highly desirable in the context of reproducibility of clinical outcomes among patients and for the safety in ranging a dose for adults and children. […]

For another test, the target named is T2, TLR4, MD-2, and CD14 (Homo sapiens, UniProt O00206+Q9Y6Y9).
T2 construct: host or cells: HEK 293
T2 sequence (O00206 24-839): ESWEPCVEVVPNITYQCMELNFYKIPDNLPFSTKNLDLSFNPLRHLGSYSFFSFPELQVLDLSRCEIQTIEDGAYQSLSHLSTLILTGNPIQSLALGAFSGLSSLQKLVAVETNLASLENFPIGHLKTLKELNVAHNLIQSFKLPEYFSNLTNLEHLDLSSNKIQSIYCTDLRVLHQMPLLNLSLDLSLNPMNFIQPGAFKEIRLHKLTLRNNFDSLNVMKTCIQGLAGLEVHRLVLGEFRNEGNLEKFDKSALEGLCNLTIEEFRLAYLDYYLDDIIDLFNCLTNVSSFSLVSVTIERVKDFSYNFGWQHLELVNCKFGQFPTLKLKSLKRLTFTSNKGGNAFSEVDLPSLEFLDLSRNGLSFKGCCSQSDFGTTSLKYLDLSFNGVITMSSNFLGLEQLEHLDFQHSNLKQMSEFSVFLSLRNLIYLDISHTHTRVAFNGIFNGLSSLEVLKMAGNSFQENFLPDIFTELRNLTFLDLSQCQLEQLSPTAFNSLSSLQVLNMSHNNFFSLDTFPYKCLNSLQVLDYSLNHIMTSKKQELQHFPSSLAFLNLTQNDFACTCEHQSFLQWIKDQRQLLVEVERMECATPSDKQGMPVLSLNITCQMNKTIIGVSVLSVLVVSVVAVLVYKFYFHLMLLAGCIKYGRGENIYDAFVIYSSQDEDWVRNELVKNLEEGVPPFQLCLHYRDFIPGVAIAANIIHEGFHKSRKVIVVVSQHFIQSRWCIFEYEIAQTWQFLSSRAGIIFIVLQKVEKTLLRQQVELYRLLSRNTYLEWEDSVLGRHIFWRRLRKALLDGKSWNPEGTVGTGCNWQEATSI
T2 sequence (Q9Y6Y9 17-160 limits assumed): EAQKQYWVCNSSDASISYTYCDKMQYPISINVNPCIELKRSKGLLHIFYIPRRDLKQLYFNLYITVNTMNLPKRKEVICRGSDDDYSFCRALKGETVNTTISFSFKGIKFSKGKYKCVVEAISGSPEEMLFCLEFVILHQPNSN
The experiment in a line: NF-kB reporter (secreted alkaline phosphatase, QUANTIBlue) assay in HEK 293 cells expressing TLR4, MD-2 and CD14. The format is cell-based. On the procedure: as §1

Test [1] concerns ID83 antigen (Mycobacterium tuberculosis antigenic polypeptide)-specific IFN-γ secreting splenocytes. The experiment in a line: ELISPOT of IFN-γ cytokine responses of splenocytes from mice vaccinated with ID83 antigen plus adjuvant. Format: in vivo, Mice (C57BL/6).

On to `CCCCCCCCCCC[C@@H](O)CC(=O)N[C@@H]1C(O)OC(CO[C@@H]2OC(CO)[C@@H](OP(=O)(O)O)[C@H](OC(=O)C[C@@H](CCCCCCCCCCC)OC(=O)CCCCCCCCC)[C@@H]2NC(=O)C[C@@H](CCCCCCCCCCC)OC(=O)CCCCCCCCC)[C@@H](O)[C@@H]1OC(=O)C[C@H](O)CCCCCCCCCCC` (stereo partly drawn) [Compound IX, (3R)-((2R,3S,4R,5S)-3-((R)-3-(DECANOYLOXY)TETRADECANAMIDO)-2-(((3S,4R,5S)-3,6-DIHYDROXY-5-((R)-3-HYDROXYTETRADECANAMIDO)-4-((R)-3-HYDROXYTETRADECANOYLOXY)TETRAHYDRO-2H-PYRAN-2-YL)METHOXY)-6-(HYDROXYMETHYL)-5-(PHOSPHONOOXY)TETRAHYDRO-2H-PYRAN-4-YL) 3-(DECANOYLOXY)TETRADECANOATE], for which, in the test with human whole blood cells, the “immunostimulatory activity (induction of MIP-1-α and TNF-α)” value is given as “has immunostimulatory activity in primary human blood cells”. For the same compound, on TLR2 and TLR6, the “induction of TLR2” value is on record as “did not appear to be associated with induction of TLR2”. Besides, the TLR4 agonist activity entry on TLR4, MD-2, and CD14 (HEK 293 cells with TLR4, MD-2, CD14 and NF-kB reporter) is reported as “clear TLR4 agonist activity”. Besides, at TLR4, MD-2, and CD14 (serial dilutions), the “shape of profile with increasing concentration” value is recorded as “plateaus rapidly as concentrations are increased”. For the same compound, the “ID83 antigen-specific IFN-γ cytokine responses (IFN-γ secreting cells per million of splenocytes, ELISPOT)” value in test [1] (C57BL/6 mice, 8 μg ID83 + 10 μg adjuvant in stable emulsion, three immunizations at three-week intervals, three weeks after the third immunization) is recorded as “induced robust ID83 antigen-specific cytokine responses”. Further, in test [1] (Compound IX in a stable oil formulation with ID83), the “type of antigen-specific immune response induced (conclusion)” value is “induced predominantly antigen-specific immune responses of the cellular type (T cell) associated with the protective TH1 phenotype”.
